Results: publication PMC6736568, “Discovery of Novel Anti-cryptosporidial Activities From Natural Products by in vitro High-Throughput Phenotypic Screening” (Frontiers in Microbiology, 2019)
Like-named read-outs stand apart in the source and are kept apart here.

Legend:
[1] = in vitro
[2] = tested on: Cryptosporidium parvum; assay: qRT-PCR assay of the growth of C. parvum in vitro in HCT-8 host cells (primary and secondary screening, EC50); type: cell-based; details: Cryptosporidium parvum, HCT-8
[3] = tested on: HCT-8 host cells (Hs18S)
[4] = primary screening at 10 uM, read-out: Inhibition (%)
[5] = primary screening at 10 uM, treated vs control

SMILES | Hs18S ΔCT ([3]; human, 41 h, 10 μM) | cytotoxicity at 41 h, 10 µM ([1]; human) | inhibition at 10 µM [2, 4] | cytotoxicity at 10 µM [1] | Hs18S ΔCT [3, 5] | inhibition at 10 µM [2] | cytotoxicity at 41 h, 10 µM [1] | inhibition at 3.3 µM ([2]; secondary screening at 3.3 uM, read-out: % Inhibition (3.3 uM))
C=C(C)[C@@H]1CC[C@]2(CO)CC[C@]3(C)[C@H](CC[C@@H]4[C@@]5(C)CC[C@H](O)C(C)(C)[C@@H]5CC[C@]43C)[C@@H]12 [BETULIN] | – | – | 36.9% | -40.4% | -0.49 | – | – | –
C[C@@H]1C(=O)O[C@H]2[C@H]1CC[C@@]1(C)C=CC(=O)[C@@]3(C)O[C@@]213 [EPOXY (4,5alpha)-4,5-DIHYDROSANTONIN] | – | – | 29.7% | -1.8% | -0.03 | – | – | –
C=C1C[C@]23C[C@@]1(O)CC[C@H]2[C@@]12C=C[C@H](O)[C@@](C)(C(=O)O1)[C@H]2[C@@H]3C(=O)O [GIBBERELLIC ACID] | – | – | 32.7% | 5.9% | 0.09 | – | – | –
C=C(C)[C@H]1CC=C(C)CC1 [d-LIMONENE] | -0.21 | -15.7% | -6.54% | – | – | – | – | –
O=c1cc(-c2ccccc2)oc2c(O)c(O)ccc12 [7,8-DIHYDROXYFLAVONE] | – | – | 49.3% | 28.8% | 0.49 | – | – | –
O=C(O)c1cc(O)c2cccc(O)c2n1 [X[…]] | – | – | – | -24.4% | -0.32 | 20.3% | – | –
OC[C@H]1O[C@@](CO)(O[C@H]2O[C@H](CO)[C@@H](O)[C@H](O)[C@H]2O)[C@@H](O[C@H]2O[C@H](CO)[C@@H](O)[C@H](O)[C@H]2O)[C@@H]1O [MELEZITOSE] | -0.18 | -13% | -16.8% | – | – | – | – | –
CC(C)(O)CC[C@@H](O)[C@](C)(O)[C@H]1CC[C@@]2(O)C3=CC(=O)[C@@H]4C[C@@H](O)[C@@H](O)C[C@]4(C)[C@H]3CC[C@]12C [CRUSTECDYSONE] | – | -10.6% | 39.8% | – | -0.15 | – | – | –
CN1[C@@H]2CC[C@H]1C[C@@H](OC(=O)[C@H](CO)c1ccccc1)C2 [HYOSCYAMINE] | – | – | 36.2% | -8.9% | -0.12 | – | – | –
COc1cccc2c1cc([N+](=O)[O-])c1c(C(=O)O)cc3c(c12)OCO3 [ARISTOLOCHIC ACID] | – | – | 8.39% | – | -0.03 | – | -1.8% | –
C[C@H]1COC2=C1C(=O)C(=O)c1c2ccc2c1CCCC2(C)C [CRYPTOTANSHINONE] | – | – | 95.3% | 11.9% | 0.18 | – | – | -85%
COc1ccc(C(=O)O)cc1OC [VERATRIC ACID] | – | – | -10.7% | -6.7% | -0.09 | – | – | –

Second part, led by results:

Hs18S ΔCT ([3]; human, 41 h, 10 μM) | SMILES | cytotoxicity at 41 h, 10 µM ([1]; human) | inhibition at 10 µM [2, 4] | cytotoxicity at 10 µM [1] | Hs18S ΔCT [3, 5] | inhibition at 10 µM [2] | cytotoxicity at 41 h, 10 µM [1] | inhibition at 3.3 µM ([2]; secondary screening at 3.3 uM, read-out: % Inhibition (3.3 uM))
0.03 | CC12CCCC(O)(C1)C1CC(C)(C)C1CC2 (stereo not drawn) [beta-CARYOPHYLLENE ALCOHOL] | 1.9% | 24.2% | – | – | – | – | –
0.01 | COc1ccc(C(C)=O)c(O)c1 [PAEONOL] | 0.8% | -10.4% | – | – | – | – | –
0.01 | CC(=O)O[C@H]1CC[C@]2(C)[C@H]3CC=C4[C@@H]5CC(C)(C)CC[C@]5(C)CC[C@@]4(C)[C@]3(C)CC[C@H]2C1(C)C [beta-AMYRIN ACETATE] | 0.5% | 11.3% | – | – | – | – | –
0.22 | N[C@@H](C(=O)O)[C@@H](O)[C@H](O)[C@H](O)CO [GLUCOSAMINIC ACID] | 13.9% | -5.48% | – | – | – | – | –
0.08 | COC(=O)C[C@H]1C(C)(C)[C@@H](OC(C)=O)[C@@H]2CC3C4CC(=O)O[C@@H](c5ccoc5)[C@]4(C)CCC3[C@@]1(C)C2=O (stereo partly shown) [DIHYDROFISSINOLIDE] | 5.3% | 4.5% | – | – | – | – | –
-0.24 | CC(=O)O[C@@H]1C[C@H]2C(C)(C)C(=O)CC[C@]2(C)[C@H]2CC[C@@]3(C)[C@H](c4ccoc4)OC(=O)[C@H]4O[C@]43[C@@]21C [DIHYDROGEDUNIN] | -17.9% | 33.3% | – | – | – | – | –
-1.56 | COc1ccc2[nH]cc(CCNC(C)=O)c2c1 [MELATONIN] | -196% | -62.2% | – | – | – | – | –
-0.03 | C=C[C@H]1C[N@@]2CC[C@H]1C[C@@H]2[C@@H](O)c1ccnc2ccc(OC)cc12 [QUINIDINE GLUCONATE] | -2% | 11.2% | – | – | – | – | –
-0.06 | CC/C=C\C/C=C\C/C=C\C/C=C\C/C=C\C/C=C\CCC(=O)O [DOCONEXENT] | -4% | -24.5% | – | – | – | – | –
0.41 | CN1C(=O)CC[C@H]1c1cccnc1 [COTININE] | 24.7% | 42.6% | – | – | – | – | –
0.10 | CO[C@@H]1[C@@H](OC(N)=O)[C@@H](O)[C@H](Oc2ccc3c(O)c(NC(=O)c4ccc(O)c(CC=C(C)C)c4)c(=O)oc3c2C)OC1(C)C [NOVOBIOCIN SODIUM] | 6.5% | -13.6% | – | – | – | – | –
-0.11 | C[C@@]12C[C@@]3(O)O[C@@H](O1)[C@]1(COC(=O)c4ccccc4)[C@H]3C[C@@]12O[C@@H]1O[C@H](CO)[C@@H](O)[C@H](O)[C@H]1O [PEONIFLORIN] | -7.6% | -19.9% | – | – | – | – | –
